Values quoted from earlier work, collected in paper PMC11767697, “Radiocobalt-Labeling of a Polypyridylamine Chelate Conjugated to GE11 for EGFR-Targeted Theranostics” (Molecules, 2025).

Details: Co(II) complex
Experimental: The promising therapeutic properties of the AEE, ^58mCo (T1/2 = 9.1 h), have been theoretically predicted and confirmed by in vitro and in vivo experiments using PSMA and octreotide conjugates of DOTA [[2],[11 ...

stability (binding) constant Log(β) (comparable conditions) | stability constant Log(β) | SMILES
16.1 |  | O=C([O-])CN(CCN(CC(=O)[O-])CC(=O)[O-])CC(=O)[O-].[Co+2] [[Co^II(EDTA)]^2-]
 | 16.6 | [Co+2].c1ccc(CN(CCN(Cc2ccccn2)Cc2ccccn2)Cc2ccccn2)nc1 [[Co^II(TPEN)]^2+]
